This is an account of results in US10730849B2, “Benzo[b]thiophene compounds as STING agonists” (MERCK SHARP & DOHME CORP., priority 2016, dated 2020).

By pEC50 is commonly meant −log10 of the EC50, conventionally taken in molar units. As usually defined, the inhibition is the percentage by which the read-out fell short of the control. Low values mean a weak effect, high ones a strong effect.

The target in one assay is full-length HAQ STING (Homo sapiens (Human), UniProt Q86WV6, G230A/H232R/R293Q/R71H). As to the kind of experiment: 3H-cGAMP filtration binding assay (HAQ STING). As to conditions: competition with tritiated cGAMP, HAQ STING membrane. An excerpt:
The ability of compounds to bind STING is quantified by the ability to compete with tritiated cGAMP ligand for human STING receptor membrane using a radioactive filter-binding assay. The binding assay employs STING receptor obtained from Hi-Five cell membranes overexpressing full-length HAQ STING prepared in-house and tritiated cGAMP ligand also purified in-house.
The ability of compounds to bind STING is quantified by their ability to compete with tritiated cGAMP ligand for human STING receptor membrane using a radioactive filter-binding assay. The binding assay employs STING receptor obtained from Trichoplusia ni cell membranes (T. ni; Expression Systems, cat #94-002F, www.exressionsystems.com) overexpressing full-length HAQ STING and tritiated cGAMP ligand.
The basic HAQ STING filtration assay protocol is as follows:
Compound and membrane then preincubated for 60 min at RT to allow compound binding to equilibrate. Following equilibration, 8 nM of [^3H]c-GAMP ligand was prepared by diluting into assay buffer, and 50 uL of this working stock was then manually added to each well of the assay plate. […] The filter plates were then dried at 55° C. for 30 min using a pressurized oven before 30 uL of ULTIMA GOLD F scintillate was added to each well. Tritium levels for each reaction well were then measured using a PerkinElmer TopCount plate reader.
(§1) After normalization to controls, the percent activity for each compound concentration was calculated by measuring the amount of remaining radioactivity. The plot of percent activity versus the log of compound concentration was fit with a 4-parameter dose response equation to calculate EC50 values.

A further assay relates to THP1 cells. As to the kind of experiment: IFN-β secretion in THP1 cell culture (5 h). It counts as cell-based, human. The following applies: relative to 30 uM cGAMP. On the procedure:
The ability of compounds to stimulate the secretion of interferon-beta from THP1 cells was measured using a human IFN-3 AlphaLISA kit (Perkin Elmer, Cat. No. AL265F). The basic protocol is as follows:
The cell viability and count was ascertained using a Beckman Coulter V-Cell XR cell counter. The cells suspension was centrifuged at 200×g for 5 min at RT. Cells were resuspended to a density of 0.8×10^6/mL in 37° C. assay medium. Subsequent liquid transfers were performed using either a Matrix electronic multichannel pipette or an Agilent Bravo Automated Liquid Handling Platform.
The assay was started by dispensing 40 μL of the previously prepared cell suspension into the wells of the plate containing compounds. After 5 h incubation at 37° C., 5% CO2 in a humidified atmosphere, the plate of cells and compounds was centrifuged at 200×g for 5 min at RT. […] To these supernatant-containing wells was added 10 μL of 5× Anti-Analyte Acceptor beads ([…] of AlphaLISA HiBlock Buffer) and incubated for 30 min at RT while shaking on an orbital plate shaker. To each well was added 10 μL of 5× Biotinylated Antibody Anti-analyte (5 nM in AlphaLISA HiBlock Buffer) and incubated on an orbital plate shaker for 60 min at RT or overnight at 4° C. To each well was added 25 μL of 2× SA-Donor beads ([…] in AlphaLISA HiBlock Buffer) and incubated for 30-45 min at RT in the dark while shaking on an orbital plate shaker. The plate was then read on a Perkin Elmer Envision (λex=680 nm, […]). The percent effect of the AlphaLISA signal at each compound concentration was calculated based on 30 uM cGAMP positive controls and 0.3% DMSO negative controls. The plot of percent effect versus the log of compound concentration was fit with a 4-parameter concentration response equation to calculate EC50 values.
Compounds of the disclosure were evaluated for IFN-3 secretion in THP1 cell culture as described above.

Another assay addresses full-length WT STING (Homo sapiens (Human), UniProt Q86WV6, H232R). As to the kind of experiment: 3H-cGAMP filtration binding assay (WT STING). The following applies: for pEC50: competition with tritiated cGAMP, WT STING membrane; for inhibition at 20 µM: WT STING, compound at 20 uM.
Text: The ability of compounds to bind STING is quantified by their ability to compete with tritiated cGAMP ligand for human STING receptor membrane using a radioactive filter-binding assay. The binding assay employs STING receptor obtained from Trichoplusia ni cell membranes (T. ni; Expression Systems, cat #94-002F, www.expressionsystems.com) overexpressing full-length WT STING and tritiated cGAMP ligand.
The basic WT STING filtration assay protocol is as follows:
The filter plates were then dried at 55° C. for 30 min using a pressurized VWR oven before 30 uL of ULTIMA GOLD F scintillate was added to each well. Tritium levels for each reaction well were then measured using a PerkinElmer TopCount plate reader.
as §1

pEC50: −log10 of the molar value.

full-length HAQ STING, sequence (Q86WV6 other isoform, or with tags, fused parts or gaps, stated change not applied): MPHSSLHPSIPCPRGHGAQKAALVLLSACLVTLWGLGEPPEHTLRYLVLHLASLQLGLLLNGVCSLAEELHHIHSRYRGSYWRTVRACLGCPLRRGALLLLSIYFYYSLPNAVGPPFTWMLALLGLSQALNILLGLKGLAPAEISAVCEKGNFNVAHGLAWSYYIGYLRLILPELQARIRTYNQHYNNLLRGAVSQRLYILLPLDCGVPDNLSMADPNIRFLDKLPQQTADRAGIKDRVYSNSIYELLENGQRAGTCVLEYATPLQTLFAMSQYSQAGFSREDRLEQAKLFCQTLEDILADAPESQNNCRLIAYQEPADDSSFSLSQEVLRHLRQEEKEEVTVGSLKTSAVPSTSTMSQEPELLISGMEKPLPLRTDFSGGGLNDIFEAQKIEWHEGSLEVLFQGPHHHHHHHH
full-length WT STING, sequence (Q86WV6 other isoform, or with tags, fused parts or gaps H232R (already in the parent)): as the sequence (Q86WV6 other isoform, or with tags, fused parts or gaps, stated change not applied) above, with H71R, A230G, Q293R counted along it

In turn, `COc1cc2sc(C(=O)[C@@H]3C[C@@H]3C(=O)O)cc2cc1Br` (single isomer, unassigned) [Example 5, 2-(5-bromo-6-methoxybenzo[b]thiophene-2-carbonyl)cyclopropane-1-carboxylic acid] had a negative logarithm of the EC50 (pEC50) at full-length HAQ STING of 5.94. Moreover, the “% Effect at 30 μM relative to 2’3’-cGAMP” value in the assay on THP1 cells turned out to be 77%.
For `COc1cc2sc(C(=O)[C@H]3C[C@H]3C(=O)O)cc2cc1Br` (single isomer, unassigned) [Example 6, 2-(5-bromo-6-methoxybenzo[b]thiophene-2-carbonyl)cyclopropane-1-carboxylic acid], in that order: 6.15 and 130%.
For `CCC(CC(=O)c1cc2cc(OC)c(OC)cc2s1)C(=O)O` (centres unmarked) [Example 1, 4-(5,6-dimethoxybenzo[b]thiophen-2-yl)-2-ethyl-4-oxobutanoic acid], the pEC50 is 5.47 at full-length HAQ STING and 5.29 on full-length WT STING. For the same compound, in the assay with THP1 cells, the “% Effect at 30 μM relative to 2’3’-cGAMP” value is recorded as 144%.
On the same counts, the results for `COc1cc2cc(C(=O)CC(C(=O)O)C(C)C)sc2cc1OC` (centres unmarked) [Example 2, 4-(5,6-Dimethoxybenzo[b]thiophen-2-yl)-2-isopropyl-4-oxobutanoic acid] are 5.02, 4.95 and 149%.
In the case of `COc1cc2cc(C(=O)CC(C(=O)O)C3CC3)sc2cc1OC` (centres unmarked) [Example 3, 2-Cyclopropyl-4-(5,6-dimethoxybenzo[b]thiophen-2-yl)-4-oxobutanoic acid], the pEC50 on full-length HAQ STING was 4.97. This compound also had an inhibition at 20 µM at full-length WT STING of 41%. In addition, the “% Effect at 30 μM relative to 2’3’-cGAMP” value in the assay with THP1 cells came out at 59%.
As for `COc1cc2cc(C(=O)C3CC3C(=O)O)sc2cc1OC` (centres unmarked) [Example 4, 2-(5,6-Dimethoxybenzo[b]thiophene-2-carbonyl)cyclopropane carboxylic acid], the negative-log EC50 (pEC50) was 5.72 at full-length HAQ STING and 5.94 at full-length WT STING. For the same compound, the “% Effect at 30 μM relative to 2’3’-cGAMP” value in the assay on THP1 cells came to 34%.
Turning to `COc1cc2sc(C(=O)CCC(=O)O)cc2cc1Cl` [Example 7, 4-(5-Chloro-6-methoxybenzo[b]thiophen-2-yl)-4-oxobutanoic acid], the pEC50 at full-length HAQ STING is 5.03. The inhibition at 20 µM on full-length WT STING was 20%. Also, the “% Effect at 30 μM relative to 2’3’-cGAMP” value with THP1 cells was found to be 290%.
On to `C=Cc1cc2sc(C(=O)CCC(=O)O)cc2cc1OC` [Example 8, 4-(5-Methoxy-6-vinylbenzo[b]thiophen-2-yl)-4-oxobutanoic acid], for which the pEC50 at full-length HAQ STING is 5.17; at full-length WT STING it was 4.81. Further, the “% Effect at 30 μM relative to 2’3’-cGAMP” value in the assay with THP1 cells was 260%.
On the same counts, the results for `COc1cc2cc(C(=O)CCC(=O)O)sc2cc1Br` [Example 9, 4-(6-Bromo-5-methoxybenzo[b]thiophen-2-yl)-4-oxobutanoic acid] are 5.59, 4.96 and 298%.
Take `CNc1cc2cc(C(=O)CCC(=O)O)sc2cc1OC` [Example 10, 4-(6-Methoxy-5-(methylamino)benzo[b]thiophen-2-yl)-4-oxobutanoic acid]: the negative-log EC50 (pEC50) at full-length HAQ STING is 4.85. At full-length WT STING, this compound showed an inhibition at 20 µM of 31%. Besides, the “% Effect at 30 μM relative to 2’3’-cGAMP” value in the assay on THP1 cells is listed as 182%.
Turning to `COc1cc2cc(C(=O)C[C@H](C)C(=O)O)sc2cc1OC` [Example 11, (S)-4-(5,6-Dimethoxybenzo[b]thiophen-2-yl)-2-methyl-4-oxobutanoic acid], the pEC50 is 5.56 on full-length HAQ STING and 5.41 at full-length WT STING. Also, in the assay with THP1 cells, the “% Effect at 30 μM relative to 2’3’-cGAMP” value amounted to 132%.
On to `COc1cc2cc(C(=O)CCC(=O)OC(C)(C)C)sc2cc1OC` [Example 12, tert-butyl 4-(5,6-dimethoxybenzo[b]thiophen-2-yl)-4-oxobutanoate], for which the “% Effect at 30 μM relative to 2’3’-cGAMP” value in the assay with THP1 cells worked out at 16%.
Same read-out and setting: with `COc1cc2sc(C(=O)CCC(=O)O)cc2c(F)c1OC` [Example 14, 4-(4-fluoro-5,6-dimethoxybenzo[b]thiophen-2-yl)-4-oxobutanoic acid] the figure was 394%.
In turn, `CNc1cc2sc(C(=O)C[C@H](C)C(=O)O)cc2cc1OC` [Example 37, (S)-4-(5-methoxy-6-(methylamino)benzo[b]thiophen-2-yl)-2-methyl-4-oxobutanoic acid] showed a negative-log EC50 (pEC50) on full-length HAQ STING of 5.25. The “% Effect at 30 μM relative to 2’3’-cGAMP” value in the assay on THP1 cells was 42%.
On the same counts, the results for `COc1cc2cc(C(=O)C[C@H](C)C(=O)O)sc2cc1SC` [Example 38, (S)-4-(5-methoxy-6-(methylthio)benzo[b]thiophen-2-yl)-2-methyl-4-oxobutanoic acid] are 5.72 and 154%.
On the same counts, the results for `C=Cc1cc2cc(C(=O)[C@@H]3C[C@@H]3C(=O)O)sc2cc1OC` [Example 39, (1S,2R)-2-(6-methoxy-5-vinylbenzo[b]thiophene-2-carbonyl)cyclopropane-1-carboxylic acid] are 5.94 and 193%.
For `COc1cc2sc(C(=O)C3CC3C(=O)O)cc2cc1SC` (centres unmarked) [Example 40, 2-(6-methoxy-5-(methylthio)benzo[b]thiophene-2-carbonyl)cyclopropane-1-carboxylic acid], in that order: 5.40 and 93%.
On to `COc1cc2cc(C(=O)C[C@H](C)C(=O)O[C@H]3CSSC[C@@H]3O)sc2cc1OC` [Example 42, (S)-(4R,5R)-5-hydroxy-1,2-dithian-4-yl 4-(5,6-dimethoxybenzo[b]thiophen-2-yl)-2-methyl-4-oxobutanoate], for which the negative logarithm of the EC50 (pEC50) at full-length HAQ STING was 6.12. In addition, in the assay on THP1 cells, the “% Effect at 30 μM relative to 2’3’-cGAMP” value was found to be 6%.
On the same counts, the results for `CCCc1cc2sc(C(=O)C[C@H](C)C(=O)O)cc2cc1OC` [Example 44, (2S)-4-(5-methoxy-6-propyl-1-benzothiophen-2-yl)-2-methyl-4-oxobutanoic acid] are 4.80 and 20%.
Compound `COc1cc2cc(C(=O)CCC(=O)O)sc2cc1CCF` [Example 45, 4-[6-(2-fluoroethyl)-5-methoxy-1-benzothiophen-2-yl]-4-oxobutanoic acid] gave a negative-log EC50 (pEC50) at full-length HAQ STING of 4.83. In addition, in the assay on THP1 cells, the “% Effect at 30 μM relative to 2’3’-cGAMP” value was 104%.
With `CCCc1cc2cc(C(=O)C[C@H](C)C(=O)O)sc2cc1OC` [Example 47, (2S)-4-(6-methoxy-5-propyl-1-benzothiophen-2-yl)-2-methyl-4-oxobutanoic acid], the pEC50 on full-length HAQ STING is 5.30. In addition, the “% Effect at 30 μM relative to 2’3’-cGAMP” value in the assay with THP1 cells is given as 90%.
For `CCCC(CC(=O)c1cc2cc(OC)c(OC)cc2s1)C(=O)O` (centres unmarked) [Example 49, 2-(2-(5,6-dimethoxybenzo[b]thiophen-2-yl)-2-oxoethyl)pentanoic acid], in that order: 5.57 and 111%.
For the compound `COc1cc2sc(C(=O)C[C@H](C)C(=O)O)cc2c2nc(C)oc12` [Example 54, (S)-4-(4-methoxy-2-methylthieno[2′,3′:5,6]benzo[1,2-d]oxazol-7-yl)-2-methyl-4-oxobutanoic acid], the negative-log EC50 (pEC50) on full-length HAQ STING is 6.27. In the assay with THP1 cells, the “% Effect at 30 μM relative to 2’3’-cGAMP” value stood at 66%.
